Assay results: US8822482B2, “Icotinib hydrochloride, synthesis, crystalline forms, pharmaceutical compositions, and uses thereof” (Beta Pharma, Inc., priority 2008, dated 2014)
Read-outs that look alike come from different tables or passages of the source.

Key:
[1] = molecular target: EGFR tyrosine kinase (Homo sapiens, UniProt P00533); assay: Inhibition of EGFR tyrosine kinase, 32P-ATP Crk substrate phosphorylation, polyacrylamide gel electrophoresis; type: biochemical; conditions: for inhibition at 0.0625 µM: 62.5 nM
Experimental: Method: This method is based on the ability of protein kinases to catalyze substrate phosphorylation; radioisotope ^32P-labeled ATP (^32P-γ-ATP) is utilized in the reaction system to radioactively tag the protein substrate with ^32P. After separation and isolation of the protein substrate by polyacrylamide gel electrophoresis, the intensity of the radioactive ^32P-labeled protein substrate is recorded.
The kinase reaction buffer included 1 μM of non-isotope labeled-ATP. […] The mixture was incubated on ice for 10 min, and 1 μCi of ^32P-γ-ATP was then added. After incubation at 30° C. for 20 min, SDS (sodium dodecyl sulfate) sample buffer was added, and the mixture was boiled in a 100° C. water bath for 4 min. The samples were separated by 10% SDS-PAGE. After vacuum drying of the polyacrylamide gel, the intensity of radioactively labeled proteins were measured and recorded using a Phosphorimager (Molecular Dynamics Inc.). The signal was quantitatively analyzed utilizing ImageQuant software. The degree of Crk substrate phosphorylation was used to estimate the activity of the kinase. Inhibition (%)=(1−kinase activity of the test group/kinase activity of control group)×100%

[2] = test system: A431 human epidermoid carcinoma; assay: Tumor cell growth inhibition in vitro, MTT assay; type: cell-based; conditions: A-431, A431, 96 hr
Experimental: (§1) Method: Cells (˜2×10^3) were seeded in 96-well plates in 200 μL of RPMI1640 cell culture medium supplemented with 10% FBS. After 24 hours at 37° C. and 5% CO2, the medium was replaced in quintuplicate wells with medium containing Icotinib hydrochloride Crystalline Form I dissolved in DMSO and then serial diluted, yielding final Icotinib concentrations of 0.05-300 μM. DMSO concentrations were less than 0.1% at the highest drug concentrations. Cells were incubated in medium alone with 0.1% DMSO as a negative control. Following a 96 hr incubation, the MTT [3-(4,5-dimethylthiazol-2-yl)-2,5-diphenyltetrazolium] colorimetric assay was performed using a microplate reader (reference wavelength 450 nm, detection wavelength 570 nm). The logarithm of drug concentration on the inhibition rate was linear, and the half inhibitory concentration of the drug (IC50) was obtained.

[3] = test system: A549 human non-small cell lung cancer cells; assay: Tumor cell growth inhibition in vitro, MTT assay; type: cell-based
Experimental: as §1

[4] = test system: BEL-7402 human hepatoma cells; assay: Tumor cell growth inhibition in vitro, MTT assay; type: cell-based
Experimental: as §1

[5] = test system: BGC-823 human gastric cancer cells; assay: Tumor cell growth inhibition in vitro, MTT assay; type: cell-based
Experimental: as §1

[6] = test system: H460 human lung adenocarcinoma cells; assay: Tumor cell growth inhibition in vitro, MTT assay; type: cell-based
Experimental: as §1

[7] = test system: HCT8 human colon cancer cells; assay: Tumor cell growth inhibition in vitro, MTT assay; type: cell-based
Experimental: as §1

[8] = test system: KB human epidermoid carcinoma cells; assay: Tumor cell growth inhibition in vitro, MTT assay; type: cell-based
Experimental: as §1

[9] = test system: P450 enzymes; assay: Induction of P450 enzymes in rat liver; type: in vivo
Experimental: In addition, non-clinical pharmacokinetic studies of Icotinib hydrochloride Crystalline Form I in Beagle dogs and rats were conducted.

[10] = test system: advanced non-small cell lung cancer (NSCLC); assay: Phase IIa clinical trial in advanced NSCLC patients; type: in vivo, human
Text: Definitions of terms used: PR: partial remission, CR: complete remission, SD: stable disease, PD: progression of disease, ORR: objective response rate, DCR: disease control rate.

[11] = Pharmacokinetic study of the different crystalline forms and the free base in rats; type: in vivo, Wistar rats; conditions: for The area under the concentration-time curve (0-infinity) / The area under the concentration-time curve (0-t): fasted Wistar rats, oral suspension, dose equivalent to 35 mg/kg Icotinib hydrochloride, plasma, hydrochloride
Experimental: Drugs and reagents: Icotinib (free base) and Icotinib hydrochloride crystalline forms I, II, III, and IV were ground to fine particles. The material content (purity) was not less than 99.0%. Sodium carboxymethyl cellulose was medical supply graded. Experimental animals: Wistar rats, male and female, 150-220 g each. Pharmaceutical preparation: Weigh the appropriate amount of each substance and add sodium carboxymethyl cellulose to 0.5%. Prepare a suspension at a final concentration of 3.5 mg/mL in water. Administration and sample collection: Each suspension was administered orally to fasted Wistar rats at a dose equivalent to 35 mg/kg Icotinib hydrochloride in a dose volume of 10 ml/kg. […] After purification, samples were analyzed by high performance liquid chromatography. The chromatographic conditions utilized C18-silane bonded silica as stationary phase, 0.02 mol/L of sodium dihydrogen phosphate in acetonitrile (40:60, using sodium hydroxide solution to adjust pH to 5.0) as the mobile phase and a detection wavelength of 334 nm.

[12] = 225 mg/day (75 mg, 3 times a day)
[13] = 300 mg/day (100 mg, 3 times a day)
[14] = 300 mg/day (150 mg, Twice a day)
[15] = 375 mg/day (125 mg, 3 times a day)
[16] = 400 mg/day (200 mg, Twice a day)
[17] = 450 mg/day (150 mg, 3 times a day)
[18] = 600 mg/day (200 mg, 3 times a day)

Sequence of EGFR tyrosine kinase (P00533 25-1210): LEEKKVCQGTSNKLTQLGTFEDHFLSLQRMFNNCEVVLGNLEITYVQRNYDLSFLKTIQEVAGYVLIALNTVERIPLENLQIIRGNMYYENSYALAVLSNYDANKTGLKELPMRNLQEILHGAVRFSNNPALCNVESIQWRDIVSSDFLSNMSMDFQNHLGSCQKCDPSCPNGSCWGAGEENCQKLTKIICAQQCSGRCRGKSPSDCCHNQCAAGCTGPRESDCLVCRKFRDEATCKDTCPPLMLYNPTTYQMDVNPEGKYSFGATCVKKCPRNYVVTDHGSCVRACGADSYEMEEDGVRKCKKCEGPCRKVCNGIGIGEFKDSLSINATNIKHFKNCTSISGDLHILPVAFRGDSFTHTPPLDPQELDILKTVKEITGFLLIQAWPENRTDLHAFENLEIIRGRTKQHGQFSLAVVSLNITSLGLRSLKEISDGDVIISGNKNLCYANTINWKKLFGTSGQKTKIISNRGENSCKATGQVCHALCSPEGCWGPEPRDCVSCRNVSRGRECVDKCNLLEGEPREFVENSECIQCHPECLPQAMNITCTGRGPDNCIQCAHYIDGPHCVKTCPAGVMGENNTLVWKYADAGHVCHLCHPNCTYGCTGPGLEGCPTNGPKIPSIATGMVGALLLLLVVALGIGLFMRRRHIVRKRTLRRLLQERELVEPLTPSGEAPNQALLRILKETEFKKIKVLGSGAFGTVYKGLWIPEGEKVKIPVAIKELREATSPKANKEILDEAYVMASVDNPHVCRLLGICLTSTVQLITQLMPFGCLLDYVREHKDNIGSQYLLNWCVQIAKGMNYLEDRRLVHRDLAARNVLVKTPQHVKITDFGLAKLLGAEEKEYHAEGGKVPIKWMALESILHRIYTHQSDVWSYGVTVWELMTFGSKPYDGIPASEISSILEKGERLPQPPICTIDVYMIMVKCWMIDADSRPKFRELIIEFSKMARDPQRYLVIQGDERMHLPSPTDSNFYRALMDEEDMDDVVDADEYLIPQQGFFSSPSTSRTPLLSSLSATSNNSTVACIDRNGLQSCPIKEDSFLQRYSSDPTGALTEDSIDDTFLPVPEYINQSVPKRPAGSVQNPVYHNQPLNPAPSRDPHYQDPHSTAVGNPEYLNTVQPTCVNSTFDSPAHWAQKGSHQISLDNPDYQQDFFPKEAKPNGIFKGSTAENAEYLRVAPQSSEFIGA

Work on `C#Cc1cccc(Nc2ncnc3cc4c(cc23)OCCOCCOCCO4)c1.Cl` [4-[(3-ethynyl-phenyl)amino]-6,7-benzo-12-crown-quinazoline hydrochloride] yielded an inhibition at 0.0005 µM ([1]; 0.5 nM, read-out: inhibition rate of EGFR kinase activity) of 20.5%, an inhibition at 0.0025 µM ([1]; 2.5 nM, read-out: inhibition rate of EGFR kinase activity) of 36.6% and an inhibition at 0.0125 µM ([1]; 12.5 nM, read-out: inhibition rate of EGFR kinase activity) of 63%. For the same molecule, the inhibition at 0.0625 µM ([1]; parallel comparison with Arg kinase, read-out: inhibition of EGFR kinase) was 97%, the inhibition at 0.0625 µM ([1]; read-out: inhibition rate of EGFR kinase activity) was 87.6% and the IC50 ([1]; from the dose-response curve, read-out: IC50 to inhibit EGFR kinase activity) was 0.005 µM. It also gave an IC50 [2] of 1 µM, an IC50 ([3]; A549, 96 hr, listed as lcotinib hydrochloride Crystalline Form I, hydrochloride) of 12.2 µM and an IC50 ([3]; Homo sapiens, A549, 96 h) of 12 µM. For the same molecule, the “activity against tumor cells (in words)” value ([4]; BEL-7402) was “low activity”, the IC50 ([4]; Homo sapiens, BEL-7402, 96 hr, MTT) was greater than 200 µM and the IC50 ([5]; BGC-823, 96 hr, listed as lcotinib hydrochloride Crystalline Form I, hydrochloride) was 4.06 µM. It also gave an IC50 ([5]; Homo sapiens, BGC-823, 96 h) of 4 µM, an IC50 ([6]; H460, 96 hr, listed as lcotinib hydrochloride Crystalline Form I, hydrochloride) of 16.1 µM and an IC50 ([6]; Homo sapiens, NCI-H460, 96 h) of 16 µM. The “activity against tumor cells (in words)” value ([7]; HCT8) was “low activity”, the IC50 ([7]; Homo sapiens, HCT-8, HCT8, 96 hr, MTT) was greater than 200 µM and the “activity against tumor cells (in words)” value [8] was “low activity”. The IC50 ([8]; Homo sapiens, 96 hr, MTT) was 40.7 µM, the “induction effect on P450 enzymes” value [9] was “No significant induction effect” and the “CR (complete remission), number of patients” value (from here on “CR (complete remission)”) [10, 12] was 0. The “DCR (disease control rate)” value [10, 12] was 85.70%, the “ORR (objective response rate)” value [10, 12] was 0.00% and the “PD (progression of disease), number of patients” value (“PD (progression of disease)” below) [10, 12] was 1. For the same molecule, the “PR (partial remission), number of patients” value (shortened to “PR (partial remission)”) [10, 12] was 0, the “CR (complete remission)” value [10, 13] was 2 and the “DCR (disease control rate)” value [10, 13] was 62.96%. The “ORR (objective response rate)” value [10, 13] was 25.93%, the “PD (progression of disease)” value [10, 13] was 10 and the “PR (partial remission)” value [10, 13] was 5. For the same molecule, the “CR (complete remission)” value [10, 14] was 1, the “DCR (disease control rate)” value [10, 14] was 69.57% and the “ORR (objective response rate)” value [10, 14] was 30.43%. The “PD (progression of disease)” value [10, 14] was 4, the “PR (partial remission)” value [10, 14] was 6 and the “CR (complete remission)” value [10, 15] was 0. For the same molecule, the “DCR (disease control rate)” value [10, 15] was 91.70%, the “ORR (objective response rate)” value [10, 15] was 37.50% and the “PD (progression of disease)” value [10, 15] was 2. For the same molecule, the “PR (partial remission)” value [10, 15] was 9, the “CR (complete remission)” value [10, 16] was 0 and the “DCR (disease control rate)” value [10, 16] was 55.56%. The “ORR (objective response rate)” value [10, 16] was 0.00%, the “PD (progression of disease)” value [10, 16] was 3 and the “PR (partial remission)” value [10, 16] was 0. For the same molecule, the “CR (complete remission)” value [10, 17] was 0, the “DCR (disease control rate)” value [10, 17] was 90.10% and the “ORR (objective response rate)” value [10, 17] was 45.45%. The “PD (progression of disease)” value [10, 17] was 1, the “PR (partial remission)” value [10, 17] was 5 and the “CR (complete remission)” value [10, 18] was 0. For the same molecule, the “DCR (disease control rate)” value [10, 18] was 66.67%, the “ORR (objective response rate)” value [10, 18] was 0.00% and the “PD (progression of disease)” value [10, 18] was 1. The “treatment of non-small cell lung cancer (in words)” value ([10]; advanced NSCLC patients, oral tablets) was “effective”, the “area under the concentration-time curve (0-t) and (0-infinity) relative to the free base form” value ([11]; Wistar rats, oral, 35 mg/kg equivalent) was “approximately 3 times” and the “The area under the concentration-time curve (0-infinity)” value (“The area … (0-infinity)” for short) ([11]; listed as Crystalline Form I) was 93.73. The “The area under the concentration-time curve (0-t)” value (“The area … (0-t)” below) ([11]; listed as Crystalline Form I) was 91.80, the “The area … (0-infinity)” value ([11]; listed as Crystalline Form II) was 90.77 and the “The area … (0-t)” value ([11]; listed as Crystalline Form II) was 88.28. For the same molecule, the “The area … (0-infinity)” value ([11]; listed as Crystalline Form III) was 90.26, the “The area … (0-t)” value ([11]; listed as Crystalline Form III) was 89.23 and the “The area … (0-infinity)” value ([11]; listed as Crystalline Form IV) was 90.23. For the same molecule, the “The area … (0-t)” value ([11]; listed as Crystalline Form IV) was 86.29.
